Laboratory results taken from PubChem BioAssay (NCI).
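These data come from cells grown in 96-well plates and exposed to compound for 48 hours at five concentrations. GI50 = concentration required for 50% inhibition of growth. The concentration for full growth arrest is given as TGI.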

Assays:
Assay in all cases: NCI tumour cell line growth inhibition, 48 h
NCI-H460 lung = system: NCI-H460 lung
HOP-92 NSCLC = system: HOP-92 NSCLC
LOX IMVI melanoma = system: LOX IMVI melanoma
A549 NSCLC = system: A549 NSCLC
MCF7 breast = system: MCF7 breast
786-0 renal = system: 786-0 renal
RXF 393 renal = system: RXF 393 renal
NCI/ADR-RES ovarian = system: NCI/ADR-RES ovarian
HCT-116 colon = system: HCT-116 colon
HCC-2998 colon = system: HCC-2998 colon
OVCAR-8 ovarian = system: OVCAR-8 ovarian
MDA-MB-231 breast = system: MDA-MB-231 breast
NCI-H23 lung = system: NCI-H23 lung
NCI-H226 lung = system: NCI-H226 lung
NCI-H522 lung = system: NCI-H522 lung
KM12 colon = system: KM12 colon
HT29 colon = system: HT29 colon
IGROV1 ovarian = system: IGROV1 ovarian
SF-295 CNS = system: SF-295 CNS
SK-OV-3 ovarian = system: SK-OV-3 ovarian
SW-620 colon = system: SW-620 colon
TK-10 renal = system: TK-10 renal
MOLT-4 leukemia = system: MOLT-4 leukemia
OVCAR-4 ovarian = system: OVCAR-4 ovarian
UACC-257 melanoma = system: UACC-257 melanoma
SN12C renal = system: SN12C renal
CAKI-1 renal = system: CAKI-1 renal
RPMI-8226 leukemia = system: RPMI-8226 leukemia

Compound: C/C(=C\CCc1ccsc1)CC/C=C(\C)CCCN1CCC(CO)CC1
- GI50 (NCI-H460 lung): 1.92 µM
- TGI (NCI-H460 lung): 3.85 µM
- GI50 (HOP-92 NSCLC): 1.02 µM
- TGI (HOP-92 NSCLC): 3.69 µM
- GI50 (LOX IMVI melanoma): 1.77 µM
- TGI (LOX IMVI melanoma): 3.27 µM
- GI50 (A549 NSCLC): 2.35 µM
- TGI (A549 NSCLC): 7.56 µM
- GI50 (MCF7 breast): 2.17 µM
- TGI (MCF7 breast): 5.09 µM
- GI50 (786-0 renal): 1.77 µM
- TGI (786-0 renal): 3.36 µM
- GI50 (RXF 393 renal): 1.31 µM
- TGI (RXF 393 renal): 3.19 µM
- GI50 (NCI/ADR-RES ovarian): 3.33 µM
- TGI (NCI/ADR-RES ovarian): 13.3 µM
- GI50 (HCT-116 colon): 1.67 µM
- TGI (HCT-116 colon): 3.32 µM
- GI50 (HCC-2998 colon): 1.97 µM
- TGI (HCC-2998 colon): 3.77 µM
- GI50 (OVCAR-8 ovarian): 3.02 µM
- TGI (OVCAR-8 ovarian): 12.8 µM
- GI50 (MDA-MB-231 breast): 1.38 µM
- TGI (MDA-MB-231 breast): 2.87 µM
- GI50 (NCI-H23 lung): 3.4 µM
- TGI (NCI-H23 lung): 12.9 µM
- GI50 (NCI-H226 lung): 3.94 µM
- TGI (NCI-H226 lung): 21 µM
- GI50 (NCI-H522 lung): 1.9 µM
- TGI (NCI-H522 lung): 3.74 µM
- GI50 (KM12 colon): 1.88 µM
- TGI (KM12 colon): 3.47 µM
- GI50 (HT29 colon): 1.94 µM
- TGI (HT29 colon): 5.64 µM
- GI50 (IGROV1 ovarian): 3.26 µM
- TGI (IGROV1 ovarian): 10.8 µM
- GI50 (SF-295 CNS): 2 µM
- TGI (SF-295 CNS): 4.13 µM
- GI50 (SK-OV-3 ovarian): 5.15 µM
- TGI (SK-OV-3 ovarian): 18.4 µM
- GI50 (SW-620 colon): 2.02 µM
- TGI (SW-620 colon): 4.77 µM
- GI50 (TK-10 renal): 1.76 µM
- TGI (TK-10 renal): 3.29 µM
- GI50 (MOLT-4 leukemia): 2.3 µM
- TGI (MOLT-4 leukemia): 5.8 µM
- GI50 (OVCAR-4 ovarian): 2.3 µM
- TGI (OVCAR-4 ovarian): 9.5 µM
- GI50 (UACC-257 melanoma): 1.84 µM
- TGI (UACC-257 melanoma): 4.06 µM
- GI50 (SN12C renal): 3.24 µM
- TGI (SN12C renal): 14.2 µM
- GI50 (CAKI-1 renal): 2.61 µM
- TGI (CAKI-1 renal): 9.22 µM
- GI50 (RPMI-8226 leukemia): 1.93 µM
